Measured values taken from ChEMBL document CHEMBL1201862, “PubChem BioAssay data set” (2004).
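A five-concentration, 48-hour dose response in 96-well plates underlies each endpoint, interpolated linearly between surrounding concentrations. Here, GI50 denotes the concentration required for 50% inhibition of growth.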 Calls of active or inactive are those of the source. Cut-off read from the data, not from the text of the source: active = GI50 up to about 1.1 µM and inactive = higher.

Key:
Assay in all cases: NCI-60 cell line screen, 48 h
NCI-H460 = test system: NCI-H460
MCF7 = test system: MCF7
HOP-62 = test system: HOP-62
SK-MEL-5 = test system: SK-MEL-5
MOLT-4 = test system: MOLT-4
HCT-15 = test system: HCT-15
SF-539 = test system: SF-539
Hs-578T = test system: Hs-578T
786-0 = test system: 786-0
SF-268 = test system: SF-268
M14 = test system: M14
A549 = test system: A549
MDA-MB-435 = test system: MDA-MB-435
KM12 = test system: KM12
RPMI-8226 = test system: RPMI-8226
U-251 = test system: U-251
SK-OV-3 = test system: SK-OV-3
RXF 393 = test system: RXF 393
K562 = test system: K562
SK-MEL-2 = test system: SK-MEL-2

Measured: GI50

COc1cccc(/C=C2\S/C(=N/Nc3nc(-c4ccc([N+](=O)[O-])cc4)cs3)NC2=O)c1O
15.6 µM: HCT-15
inactive: NCI-H460 12.6 µM | MCF7 16.6 µM | HOP-62 15.3 µM | SK-MEL-5 12.2 µM | MOLT-4 22.1 µM | SF-539 7.82 µM | Hs-578T 12.3 µM | 786-0 19.9 µM | SF-268 5 µM | M14 17 µM | A549 15.9 µM | MDA-MB-435 19.5 µM | KM12 13.2 µM | RPMI-8226 10.4 µM | U-251 1.8 µM | SK-OV-3 26.9 µM

CSC1NNC2(C(=O)N1)c1ccccc1-c1ccccc12 (stereo not drawn)
> 10 µM: HCT-15
inactive: NCI-H460 > 10 µM | RXF 393 > 10 µM | MCF7 > 10 µM | HOP-62 > 10 µM | SK-MEL-5 > 10 µM | MOLT-4 > 10 µM | SF-539 > 10 µM | Hs-578T > 10 µM | 786-0 > 10 µM | SF-268 > 10 µM | K562 > 10 µM | M14 > 10 µM | A549 > 10 µM | MDA-MB-435 > 10 µM | KM12 > 10 µM | RPMI-8226 > 10 µM | SK-OV-3 > 10 µM

N#CC(C#N)=Cc1ccc(C=C2SC3=C(SCCS3)S2)s1
active: SF-539 0.63 µM | MDA-MB-435 0.82 µM | RPMI-8226 0.881 µM
inactive: NCI-H460 7.59 µM | MCF7 2.24 µM | HOP-62 80.9 µM | SK-MEL-5 3.33 µM | MOLT-4 2.59 µM | Hs-578T 41.6 µM | 786-0 13.4 µM | SF-268 40.4 µM | SK-MEL-2 > 100 µM | M14 12.4 µM | A549 55.5 µM | KM12 2.25 µM | U-251 12.4 µM | SK-OV-3 74.8 µM
0.818 µM: HCT-15

CN(C)c1ccc(/N=N/c2ccncc2)cc1
inactive: NCI-H460 > 100 µM | RXF 393 > 100 µM | MCF7 40.8 µM | HOP-62 > 100 µM | SK-MEL-5 67 µM | MOLT-4 39.8 µM | SF-539 > 100 µM | Hs-578T > 100 µM | 786-0 > 100 µM | SF-268 85.7 µM | K562 43.5 µM | M14 > 100 µM | A549 > 100 µM | MDA-MB-435 28.8 µM | KM12 > 100 µM | RPMI-8226 47.1 µM | U-251 > 100 µM | SK-OV-3 40 µM
> 100 µM: HCT-15

C/C(=C/CC[C@](C)(OC1OC(CO)C(O)C(O)C1O)[C@H]1CC[C@]2(C)[C@@H]1CC[C@@H]1[C@@]3(C)CC[C@H](O)C(C)(C)[C@@H]3C[C@H](O)[C@]12CO)CO (stereo partly drawn)
inactive: NCI-H460 > 100 µM | RXF 393 > 100 µM | MCF7 > 100 µM | HOP-62 > 100 µM | SK-MEL-5 > 100 µM | MOLT-4 > 100 µM | SF-539 > 100 µM | Hs-578T > 100 µM | 786-0 > 100 µM | SF-268 > 100 µM | K562 > 100 µM | M14 > 100 µM | A549 > 100 µM | MDA-MB-435 > 100 µM | KM12 > 100 µM | RPMI-8226 > 100 µM | U-251 > 100 µM | SK-OV-3 > 100 µM
> 100 µM: HCT-15

C/C(=N\NC(=O)Nc1ccccc1Cl)c1ccc(O)cc1
inactive: NCI-H460 20.9 µM | MCF7 > 100 µM | SK-MEL-5 > 100 µM | MOLT-4 7.85 µM | SF-539 > 100 µM | Hs-578T > 100 µM | 786-0 > 100 µM | SF-268 > 100 µM | SK-MEL-2 > 100 µM | K562 8.02 µM | M14 > 100 µM | A549 > 100 µM | MDA-MB-435 > 100 µM | KM12 > 100 µM | RPMI-8226 > 100 µM | U-251 77.6 µM | SK-OV-3 > 100 µM
2.28 µM: HCT-15

CCCCNCCCNCCCNC(=O)c1csc(-c2csc(CCNC(=O)C(NC(=O)C(C)C(O)C(C)NC(=O)C(NC(=O)c3nc(C(CC(N)=O)NCC(N)C(N)=O)nc(N)c3C)C(OC3OC(CO)C(O)C(O)C3OC3OC(CO)C(O)C(OC(N)=O)C3O)c3c[nH]cn3)C(C)O)n2)n1 (stereo not drawn)
active: NCI-H460 0.0264 µM | HOP-62 0.174 µM | SK-MEL-5 0.247 µM | SF-539 < 0.01 µM | 786-0 0.167 µM | SF-268 0.253 µM | A549 0.386 µM | U-251 0.489 µM
inactive: MCF7 1.86 µM | MOLT-4 2.07 µM | Hs-578T 8.79 µM | SK-MEL-2 2.25 µM | K562 10.1 µM | M14 1.43 µM | MDA-MB-435 18.7 µM | KM12 8.67 µM | RPMI-8226 > 50 µM | SK-OV-3 4.06 µM
24.9 µM: HCT-15

C/C(=N/NC(=S)NCCc1ccccn1)c1cnccn1
inactive: NCI-H460 52.5 µM | HOP-62 31.2 µM | SK-MEL-5 27 µM | MOLT-4 3.26 µM | Hs-578T 78.5 µM | 786-0 14.6 µM | SF-268 38.5 µM | SK-MEL-2 > 100 µM | M14 24 µM | A549 28.8 µM | MDA-MB-435 53.3 µM | KM12 36.9 µM | RPMI-8226 13.3 µM | U-251 20.2 µM | SK-OV-3 20.1 µM

CC(C)=CC1C(C(=O)OCc2cc3c(cc2Cl)OCO3)C1(C)C (stereo not drawn)
inactive: NCI-H460 24.4 µM | RXF 393 44.1 µM | HOP-62 22.7 µM | SK-MEL-5 16.7 µM | MOLT-4 13.1 µM | Hs-578T 21.9 µM | 786-0 28.4 µM | SF-268 39.7 µM | SK-MEL-2 6.4 µM | K562 20.1 µM | M14 36.7 µM | A549 31.5 µM | MDA-MB-435 33.7 µM | KM12 27.7 µM | U-251 12.6 µM
30.1 µM: HCT-15

CN(C)Cc1cc(/N=N/c2cccc(Cl)c2)ccc1O
4.9 µM: HCT-15
inactive: NCI-H460 12.8 µM | RXF 393 1.99 µM | MCF7 14.8 µM | HOP-62 10.2 µM | SK-MEL-5 3.4 µM | MOLT-4 13.2 µM | SF-539 16 µM | Hs-578T 11.4 µM | 786-0 13.8 µM | SF-268 11.6 µM | K562 3.27 µM | M14 9.66 µM | A549 15.5 µM | MDA-MB-435 4.22 µM | KM12 7.08 µM | RPMI-8226 18.8 µM | U-251 16.9 µM | SK-OV-3 19.9 µM

Oc1cc(-c2ccc3ccccc3c2)nc2ncc(Cl)cc12
inactive: MCF7 2.44 µM | HOP-62 8.59 µM | MOLT-4 3.27 µM | SF-539 5.62 µM | Hs-578T 5.27 µM | 786-0 2.84 µM | SF-268 4.74 µM | SK-MEL-2 7.64 µM | K562 3.23 µM | M14 8.17 µM | A549 6.92 µM | KM12 3.79 µM | RPMI-8226 2.99 µM | SK-OV-3 4.73 µM
3.57 µM: HCT-15
